Results published in patent publication EP4647082A1, “PHARMACEUTICAL COMPOSITION COMPRISING A CGRP RECEPTOR ANTAGONIST FOR THE TREATMENT OF ACUTE MIGRAINE” (NUVIE BIO, Inc., priority 2024, dated 2025).
Where two headings read alike, the source gives them in different places. Marks after values point to notes of the source that are not given here. Bridge positions count the residues as written; N and C are the ends. Square brackets hold non-standard residues; d marks the D form. Peptide text beside a SMILES is read from it. * marks the point of attachment. Phe(2-CONH2) = NC(=O)c1ccccc1C[C@H](N)C(=O)O; Orn(iPr) = CC(C)NCCC[C@H](N)C(=O)O; Oxazole2carbonyl = O=C(c1ncco1)*; 3Pal = N[C@@H](Cc1cccnc1)C(=O)O

How the values were obtained:
[1] = Phase I first-in-human study, pharmacokinetics after single ascending subcutaneous doses in healthy volunteers; type: in vivo; settings: for level at 3 h: nominal time 3 h; for T10nM: time to 10 nM; for T30nM: time to 30 nM; for T100nM: time to 100 nM
Procedure: For Phase I clinical studies, the 32 mg/mL pharmaceutical composition was dosed subcutaneously. The Phase I clinical trial was a randomised, double-blind, placebo-controlled, first-in-human study of the safety, tolerability and pharmacokinetics of AXN-001 in healthy volunteers under Protocol No. AXN-001-01 .
The pharmacokinetic objective of the clinical trial was to provide pharmacokinetic analysis of AXN-001 following single ascending subcutaneous doses of AXN-001. The study design included the following Cohorts: • Cohort 1: Dose 1 mg (2 mg/mL formulation); • Cohort 2: Dose 2 mg (4 mg/mL formulation); • Cohort 3: Dose 4 mg (8 mg/mL formulation); • Cohort 4: Dose 8 mg (16 mg/mL formulation); • Cohort 5: Dose 16 mg (32 mg/mL formulation).
Participants were administered a single dose (0.5 mL) of AXN-001 or placebo via subcutaneous (SC) injection into the abdomen. Blood samples were collected at specified time points for pharmacokinetic analysis (5,10,15,20,30,45,60 minutes; 2,3,4,6,8,12,24 hours). Individual plasma concentrations of ANX-001 were determined and used for analyses.
Pharmacokinetic (PK) parameters of AXN-001 were determined using Phoenix WinNonlin version 8.3. All concentrations below the limit of quantification (BLQ) were set to zero for the purpose of the PK analysis. All AUC determinations were made using linear trapezoidal method. The following parameters were determined: Cmax Maximum observed concentration. as read directly from the observed data. Tmax Time to maximum concentration T10nM Time to 10 nM T30nM Time to 30 nM T100nM Time to 100 nM AUC0-t Area under the concentration-time curve from time zero to the time of the last measurable concentration, calculated using linear trapezoidal rule AUC0-inf Area under the concentration-time curve from time zero to infinity, calculated using linear trapezoidal rule %AUCextrap The portion of AUC determined by extrapolation t1/2 Apparent terminal elimination half-life CL/F or CL Total apparent body clearance Vz/F or Vz Apparent volume of distribution λz Terminal elimination rate constant

Solubility of AXN-001 = type: physicochemical; settings: neutral pH
[2] = human, plasma, single SC dose 16 mg, mean

CC(C)NCCC[C@@H]1NC(=O)[C@@H](NC(=O)[C@H](Cc2ccccc2C(N)=O)NC(=O)[C@H](NC(=O)c2ncco2)C(C)C)CSSC[C@@H](C(=O)N[C@@H](Cc2cccnc2)C(N)=O)NC(=O)[C@H](Cc2ccccc2)NC(=O)[C@@H]2CCCN2C(=O)CNC(=O)[C@H](C(C)C)NC(=O)[C@H](CC(=O)O)NC1=O [AXN-001, Oxazole-2-carbonyl-D-Val-Phe(2-Cbm)-c(Cys-Orn (iPr)-Asp-Val-Gly-Pro-Phe-Cys)-3Pal-NH2] (Oxazole2carbonyl-[dV][Phe(2-CONH2)]C[Orn(iPr)]DVGPFC[3Pal]-NH2; disulfide 3-10)
level at 3 h ([1]; human, plasma, single SC dose 8 mg, mean, read-out: Plasma Concentration AXN-001): 72 ng/mL | level at 4 h ([1]; human, plasma, single SC dose 8 mg, nominal time 4 h, mean, read-out: Plasma Concentration AXN-001): 38.7 ng/mL | level at 6 h ([1]; human, plasma, single SC dose 8 mg, nominal time 6 h, mean, read-out: Plasma Concentration AXN-001): 13.9 ng/mL | level at 8 h ([1]; human, plasma, single SC dose 8 mg, nominal time 8 h, mean, read-out: Plasma Concentration AXN-001): 5.8 ng/mL | level at 12 h ([1]; human, plasma, single SC dose 8 mg, nominal time 12 h, mean, read-out: Plasma Concentration AXN-001): 0.38 ng/mL | AUC(0-inf) [1, 2]: 1250 ng·h/mL | AUC(0-t) [1, 2]: 1230 ng·h/mL | CL/F [1, 2]: 222 mL/min | Cmax [1, 2]: 381 ng/mL | Tmax [1, 2]: 57.5 min | half-life [1, 2]: 168 min | level at 0.08 h ([1]; human, plasma, single SC dose 16 mg, nominal time 0.08 h, mean, read-out: Plasma Concentration AXN-001): 27.4 ng/mL | level at 0.17 h ([1]; human, plasma, single SC dose 16 mg, nominal time 0.17 h, mean, read-out: Plasma Concentration AXN-001): 83.4 ng/mL | level at 0.25 h ([1]; human, plasma, single SC dose 16 mg, nominal time 0.25 h, mean, read-out: Plasma Concentration AXN-001): 139 ng/mL | level at 0.33 h ([1]; human, plasma, single SC dose 16 mg, nominal time 0.33 h, mean, read-out: Plasma Concentration AXN-001): 183 ng/mL | level at 0.5 h ([1]; human, plasma, single SC dose 16 mg, nominal time 0.50 h, mean, read-out: Plasma Concentration AXN-001): 294 ng/mL | level at 0.75 h ([1]; human, plasma, single SC dose 16 mg, nominal time 0.75 h, mean, read-out: Plasma Concentration AXN-001): 355 ng/mL | level at 1 h ([1]; human, plasma, single SC dose 16 mg, nominal time 1 h, mean, read-out: Plasma Concentration AXN-001): 380 ng/mL | level at 2 h ([1]; human, plasma, single SC dose 16 mg, nominal time 2 h, mean, read-out: Plasma Concentration AXN-001): 277 ng/mL | level at 3 h ([1]; human, plasma, single SC dose 16 mg, mean, read-out: Plasma Concentration AXN-001): 170 ng/mL | level at 4 h ([1]; human, plasma, single SC dose 16 mg, nominal time 4 h, mean, read-out: Plasma Concentration AXN-001): 96.8 ng/mL | level at 6 h ([1]; human, plasma, single SC dose 16 mg, nominal time 6 h, mean, read-out: Plasma Concentration AXN-001): 44 ng/mL | level at 8 h ([1]; human, plasma, single SC dose 16 mg, nominal time 8 h, mean, read-out: Plasma Concentration AXN-001): 23.7 ng/mL | level at 12 h ([1]; human, plasma, single SC dose 16 mg, nominal time 12 h, mean, read-out: Plasma Concentration AXN-001): 9.2 ng/mL | %AUCextrap ([1]; single SC dose 1 mg, mean): 5.37% | Vz/F ([1]; single SC dose 1 mg, mean): 19.1 L | λz ([1]; single SC dose 1 mg, mean): 0.535 h⁻¹ | Plasma Concentration AXN-001 ([1]; single SC dose 1 mg, nominal time 0.08 h, mean): 4.96 ng/mL | Plasma Concentration AXN-001 ([1]; single SC dose 1 mg, nominal time 0.17 h, mean): 12.8 ng/mL | Plasma Concentration AXN-001 ([1]; single SC dose 1 mg, nominal time 0.25 h, mean): 17.9 ng/mL | Plasma Concentration AXN-001 ([1]; single SC dose 1 mg, nominal time 0.33 h, mean): 28.5 ng/mL | Plasma Concentration AXN-001 ([1]; single SC dose 1 mg, nominal time 0.50 h, mean): 34.8 ng/mL | Plasma Concentration AXN-001 ([1]; single SC dose 1 mg, nominal time 0.75 h, mean): 39.3 ng/mL | Plasma Concentration AXN-001 ([1]; single SC dose 1 mg, nominal time 4 h, mean): 7.47 ng/mL | Plasma Concentration AXN-001 ([1]; single SC dose 1 mg, nominal time 6 h, mean): 2.8 ng/mL | Plasma Concentration AXN-001 ([1]; single SC dose 1 mg, nominal time 8 h, mean): 0 ng/mL | Plasma Concentration AXN-001 ([1]; single SC dose 1 mg, nominal time 12 h, mean): 0 ng/mL | T10nM ([1]; single SC dose 1 mg): 12 min | T30nM ([1]; single SC dose 1 mg, marked *, 1 of 6 subjects reached 30nM): 19* min | %AUCextrap ([1]; single SC dose 2 mg, mean): 4.98% | Vz/F ([1]; single SC dose 2 mg, mean): 24.6 L | λz ([1]; single SC dose 2 mg, mean): 0.528 h⁻¹ | Plasma Concentration AXN-001 ([1]; single SC dose 2 mg, nominal time 12 h, mean): 0 ng/mL | T10nM ([1]; single SC dose 2 mg): 9 min | T30nM ([1]; single SC dose 2 mg, marked *, 5 of 6 subjects reached 30nM): 21* min | %AUCextrap ([1]; single SC dose 4 mg, mean): 1.82% | Vz/F ([1]; single SC dose 4 mg, mean): 23.3 L | λz ([1]; single SC dose 4 mg, mean): 0.517 h⁻¹ | T10nM ([1]; single SC dose 4 mg): 6 min | T30nM ([1]; single SC dose 4 mg): 11 min | T100nM ([1]; single SC dose 4 mg, marked *, 2/5 of cohort reached 100nM): 25* min | %AUCextrap ([1]; single SC dose 8 mg, mean): 1.58% | Vz/F ([1]; single SC dose 8 mg, mean): 28.7 L | λz ([1]; single SC dose 8 mg, mean): 0.481 h⁻¹ | T10nM ([1]; single SC dose 8 mg): 3 min | T30nM ([1]; single SC dose 8 mg): 7 min | T100nM ([1]; single SC dose 8 mg): 21 min | %AUCextrap ([1]; single SC dose 16 mg, mean): 1.51% | Vz/F ([1]; single SC dose 16 mg, mean): 55.3 L | λz ([1]; single SC dose 16 mg, mean): 0.292 h⁻¹ | T10nM ([1]; single SC dose 16 mg): 3 min | T30nM ([1]; single SC dose 16 mg): 7 min | T100nM ([1]; single SC dose 16 mg): 17 min | free plasma concentration (Figure 5) ([1]; within 30 minutes, compared with olcegepant, zavegepant, rimegepant and ubrogepant, consistent up to 120 minutes): much higher increase in free plasma concentration | solubility (Solubility of AXN-001): low
